Assay results reported in patent US20150119373A1, “NOVEL BETULINIC ACID DERIVATIVES AS HIV INHIBITORS” (HETERO RESEARCH FOUNDATION, priority 2012, published 2015).

What was measured:
[1] = Single dose oral pharmacokinetic study in rat; format: in vivo; settings: plasma, Rat oral PK @30 mg/kg (Table 3); for half-life: read-out: t½ (converted)
Description: The test item was administered through oral route to animals (rat/mice) at 30 mg/kg dose in a suitable vehicle at 10 ml/kg dose volume. Blood samples (˜50 uL at each time point) were collected from retro-orbital plexus using K3 EDTA as anticoagulant in eppendorf tubes at defined time intervals under light ether anesthesia. The samples were centrifuged at 3500×g to separate plasma and stored at −80° C. until analysis.
Sample analysis: Test samples were analyzed using LC-MS-MS after developing fit-for-purpose method for each of test compound.

[2] = Cyto-toxicity assay (MTT) in MT2 cells without virus; format: cell-based; settings: human
Description: For cyto-toxicity assay the same amount of MT2 cells as in antiviral assay without virus was added to the 96 well plates. The cyto-toxicity was measured using MTT reagent in parallel with p24 estimation. The percent viability is calculated in comparison with vehicle control.

[3] = Single dose oral pharmacokinetic study in mice; format: in vivo; settings: for AUC(0-inf) / Cmax / AUC(0-t) / half-life / Tmax: mouse, plasma; for half-life: read-out: t½ (converted)
Outline: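 Mice or rats dosed orally at 30 mg/kg in a suitable vehicle (10 ml/kg). Retro-orbital blood on K3 EDTA at defined time points under light ether anaesthesia; plasma analysed by LC-MS-MS.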

HIV-1 strain 92HT599 = assay: Antiviral activity: p24 estimation in MT2 cells infected with HIV-1 strain 92HT599; format: cell-based; settings: Human immunodeficiency virus 1, MT2 cells, HIV-1 92HT599, ~96 hours, p24; for inhibition at 0.1 µM: 100 nM, read-out: Antiviral activity % inhibition 100 nM; for inhibition at 1 µM: 1000 nM, read-out: Antiviral activity % inhibition 1000 nM
Outline: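 Infection of MT2 cells used 10 TCID50/30000 cells, with compound present at ≤1% DMSO for ~96 h. p24 in well aliquots was quantified by kit. Percent inhibition is relative to vehicle controls.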

[4] = Mice oral PK @30 mg/kg (Table 4)
[5] = Mice oral PK @30 mg/kg (Table 4), read-out: AUC 0-t
[6] = Oral PK @ 30 mg/ kg dose in mice (Table 6)
[7] = Oral PK @ 30 mg/ kg dose in mice (Table 6), read-out: AUCt
[8] = Mice oral PK @30 mg/kg (Table 5)

SMILES | AUC(0-inf) [1] | AUC(0-t) [1] | Cmax [1] | half-life [1] | viability at 100 nM [2] | viability at 1000 nM [2] | AUC(0-inf) [3, 4] | Cmax [3, 4] | AUC(0-t) [3, 5] | half-life [3, 4] | inhibition at 0.1 µM (HIV-1 strain 92HT599) | inhibition at 1 µM (HIV-1 strain 92HT599) | Tlast [3, 6] | AUC(0-inf) [3, 6] | Cmax [3, 6] | Tmax [3, 6] | AUC(0-t) [3, 7] | Cmax [3, 8] | Tmax [3, 8] | AUC(0-t) ([3]; Mice oral PK @30 mg/kg (Table 5), read-out: AUC 0-t)
CC(C)(CC(=O)O[C@H]1CC[C@]2(C)[C@H]3CC[C@@H]4[C@H]5[C@H](C6(C)CC6)CC[C@]5(C(=O)N[C@@H]5C[C@H](C(=O)N6CCCCC6)C5(C)C)CC[C@@]4(C)[C@]3(C)CC[C@H]2C1(C)C)C(=O)O [Example 4, 4-((1R,3aS,5aR,5bR,7aR,9S,11aR,11bR,13aR,13bR)-3a-((1R,3S)-2,2-dimethyl-3-(piperidine-1-carbonyl)cyclobutylcarbamoyl)-5a,5b,8,8,11a-pentamethyl-1-(1-methylcyclopropyl)icosahydro-1H-cyclopenta[a]chrysen-9-yloxy)-2,2-dimethyl-4-oxobutanoicacid] | 22600 ng·h/mL | 22300 ng·h/mL | 5920 ng/mL | 4.44 h | 82% | 86% | 155000 ng·h/mL | 9780 ng/mL | 138000 ng·h/mL | 14.5 h | 98% | 98% |  |  |  |  |  |  |  | 
C=C(C)[C@@H]1CC[C@]2(C(=O)O)CC[C@]3(C)[C@H](CC[C@@H]4[C@@]5(C)CC[C@H](OC(=O)[C@H]6[C@@H](CC(=O)O)C6(C)C)C(C)(C)[C@@H]5CC[C@]43C)[C@@H]12 [Compound 1, (1R,3aS,5aR,5bR,7aR,9S,11aR,11bR,13aR,13bR)-9-((1S,3R)-3-(carboxymethyl)-2,2-dimethylcyclopropanecarbonyloxy)-5a,5b,8,8,11a-pentamethyl-1-(prop-1-en-2-yl)icosahydro-1H-cyclopenta[a]chrysene-3a-carboxylic acid] | 3230 ng·h/mL | 3120 ng·h/mL | 1220 ng/mL | 1.53 h | 96% | 92% | 36700 ng·h/mL | 8790 ng/mL | 35900 ng·h/mL | 6.23 h | 95% | 100% |  |  |  |  |  |  |  | 
C=C(C)[C@@H]1CC[C@]2(C(=O)N[C@@H]3C[C@H](c4nnc(C)o4)C3(C)C)CC[C@]3(C)[C@H](CC[C@@H]4[C@@]5(C)CC[C@H](OC(=O)CC(C)(C)C(=O)O)C(C)(C)[C@@H]5CC[C@]43C)[C@@H]12 [Example 11, 4-((1R,3aS,5aR,5bR,7aR,9S,11aR,11bR,13aR,13bR)-3a-((1R,3S)-2,2-dimethyl-3-(5-methyl-1,3,4-oxadiazol-2-yl)cyclobutylcarbamoyl)-5a,5b,8,8,11a-pentamethyl-1-(prop-1-en-2-yl)icosahydro-1H-cyclopenta[a]chrysen-9-yloxy)-2,2-dimethyl-4-oxo butanoicacid] | 8160 ng·h/mL | 8050 ng·h/mL | 1970 ng/mL | 3.66 h | 96% | 98% | 138000 ng·h/mL | 11300 ng/mL | 115000 ng·h/mL | 3.66 h | 100% | 100% |  |  |  |  |  |  |  | 
CC(C)(CC(=O)O[C@H]1CC[C@]2(C)[C@H]3CC[C@@H]4[C@H]5[C@H](C6(C)CC6)CC[C@]5(C(=O)N5CCC(C(=O)NCCN6CCOCC6)CC5)CC[C@@]4(C)[C@]3(C)CC[C@H]2C1(C)C)C(=O)O [Example 49, 2,2-dimethyl-4-oxo-4-(((1R,3aS,5aR,5bR,7aR,9S,11aR,11bR,13aR,13bR)-5a,5b,8,8,11a-pentamethyl-1-(1-methylcyclopropyl)-3a-(4-((2-morpholinoethyl)carbamoyl)piperidine-1-carbonyl)icosahydro-1H-cyclopenta[a]chrysen-9-yl)oxy)butanoic acid] |  |  |  |  | 85% | 88% |  |  |  |  | 99% | 98% | 48 h | 38800 ng·h/mL | 5600 ng/mL | 1.3 h | 38700 ng·h/mL |  |  | 
CC(C)(CC(=O)O[C@H]1CC[C@]2(C)[C@H]3CC[C@@H]4[C@H]5[C@H](C6(C)CC6)CC[C@]5(C(=O)N5CCN(CCN6CCOCC6)CC5)CC[C@@]4(C)[C@]3(C)CC[C@H]2C1(C)C)C(=O)O [Example 31, 2,2-dimethyl-4-oxo-4-(((1R,3aS,5aR,5bR,7aR,9S,11aR,11bR,13aR,13bR)-5a,5b,8,8,11a-pentamethyl-1-(1-methylcyclopropyl)-3a-(4-(2-morpholinoethyl)piperazine-1-carbonyl)icosahydro-1H-cyclopenta[a]chrysen-9-yl)oxy)butanoic acid] |  |  |  |  | 100% | 95% |  |  |  |  | 99% | 99% | 48 h | 240000 ng·h/mL | 9200 ng/mL | 6.5 h | 214000 ng·h/mL |  |  | 
[2H]C([2H])([2H])C(CC(=O)O[C@H]1CC[C@]2(C)[C@H]3CC[C@@H]4[C@H]5[C@H](C(=C)C)CC[C@]5(C(=O)N[C@@H]5C[C@H](C(=O)N6CCCCC6)C5(C)C)CC[C@@]4(C)[C@]3(C)CC[C@H]2C1(C)C)(C(=O)O)C([2H])([2H])[2H] [Example 24, 4-(((1R,3aS,5aR,5bR,7aR,9S,11aR,11bR,13aR,13bR)-3a-(((1R,3S)-2,2-dimethyl-3-(piperidine-1-carbonyl)cyclobutyl)carbamoyl)-5a,5b,8,8,11a-pentamethyl-1-(prop-1-en-2-yl)icosahydro-1H-cyclopenta[a]chrysen-9-yl)oxy)-2,2-bis(methyl-d3)-4-oxobutanoic acid] |  |  |  |  | 83% | 99% |  |  |  |  | 100% | 100% | 24 h | 123000 ng·h/mL | 9100 ng/mL | 2 h | 70000 ng·h/mL |  |  | 
CC(C)(CC(=O)O[C@H]1CC[C@]2(C)[C@H]3CC[C@@H]4[C@H]5[C@H]([C@]6(C)CO6)CC[C@]5(C(=O)N[C@@H]5C[C@H](C(=O)N6CCCCC6)C5(C)C)CC[C@@]4(C)[C@]3(C)CC[C@H]2C1(C)C)C(=O)O [Example 14, 4-((1R,3aS,5aR,5bR,7aR,9S,11aR,11bR,13aR,13bS)-3a-((1R,3S)-2,2-dimethyl-3-(piperidine-1-carbonyl)cyclobutylcarbamoyl)-5a,5b,8,8,11a-pentamethyl-1-(2-methyloxiran-2-yl)icosa hydro-1H-cyclopenta[a]chrysen-9-yloxy)-2,2-dimethyl-4-oxobutanoicacid] |  |  |  |  | 86% | 88% |  |  |  |  | 100% | 100% |  |  |  |  |  | 4450 ng/mL | 0.63 h | 15200 ng·h/mL
